This is an account of results in patent publication US20250059172A1, “INDAZOLE COMPOUND AND PHARMACEUTICAL” (NIPPON SHINYAKU CO., LTD., priority 2021, published 2025).

Assay [1] has as its system Female Hartley guinea pigs. Kind of assay: Suppression of urinary output in a guinea pig model of water-loaded polyuria. Particulars: oral, total urinary output up to 3 hours after water load, relative to vehicle group. Type of assay: in vivo. Here is the method: The water-loaded polyuria model, commonly used as a model for polyuria, was used to evaluate the inhibitory effect of the test compounds on urinary output in the following manner. Female Hartley guinea pigs (Japan SLC Co., Ltd.) were acclimated in a metabolic cage (Natsume Seisakusho Co., Ltd.) in a fasted condition from the evening of one day before the test. On the following day, 20 mL/kg of distilled water was administered orally as a water load, and then the guinea pigs were placed back in the metabolic cage and the total urinary output up to 3 hours after the water load was downloaded into a personal computer via an electronic balance (GX-200, A&D Corporation) and a data collection and analysis system (PowerLab®, ADInstruments), and then analyzed using analyzing software (LabChart®, ADInstruments). Test compounds dissolved in 0.5% methylcellulose solution (vehicle) or vehicle only were administered orally immediately before water loading depending on the kinetics of the compound. Based on the total urinary output at 3 hours after administration of the test compound and vehicle groups, the percentage inhibition of urinary output of the test compound group (%) was calculated relative to the urinary output of the vehicle group.

The target in a further assay is human mPGES-1 (Homo sapiens (Human), UniProt O14684). Kind of assay: mPGES-1 inhibitory activity test. Type of assay: biochemical. Conditions: for IC50: microsomes of CHO-K1 cells expressing human mPGES-1, PGH2 1 μM, PGE2 by HTRF, read-out: mPGES-1 inhibition (IC50 nM); for inhibition at 0.01 µM: 10 nM test compound. The procedure, abridged: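 PGE2 formation was quantified by HTRF and reported as percent inhibition at 10 and 100 nM compound or as IC50. The 60-second reaction at 4° C used 1 μM PGH2, after a 20-minute 4° C preincubation of compound (1% DMSO final) with glutathione-supplemented (2.5 mM, pH 7.4) microsomes. The microsomes were from transiently transfected CHO-K1 cells expressing human mPGES-1.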
(Time-resolved FRET reads energy transfer from a long-lived donor to a nearby acceptor.)

Another assay deals with human A549 cells. Put plainly: Inhibition test of PGE2 production using human A549 cells. The assay is classed as cell-based. Conditions: IL-1β stimulated A549 cells, 24 h, PGE2 by HTRF, read-out: A549 cell inhibition of PGE2 production IC50. Summed up:
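PGE2 (HTRF) and PGF2a (EIA) were quantified in medium after 24 h, 37°C IL-1β stimulation (5 ng/well) of human A549 cells that had received test compound 60 min beforehand (0.1% DMSO, 3% FBS RPMI). IC50 relative to the window between IL-1β-stimulated and unstimulated controls.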

Molecules are shown by their SMILES. pIC50: −log10 of the molar value.

Chain of human mPGES-1 (O14684 whole entry): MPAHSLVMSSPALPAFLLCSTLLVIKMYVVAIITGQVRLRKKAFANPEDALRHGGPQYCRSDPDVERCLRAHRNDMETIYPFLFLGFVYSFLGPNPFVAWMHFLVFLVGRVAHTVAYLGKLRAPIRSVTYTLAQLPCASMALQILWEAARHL

With `Cc1ccc(-n2ncc3c(NC(=O)c4cc(CNC(=O)C(C)(C)C)ccc4Cl)cccc32)nn1` [Example 59, 2-Chloro-5-{[(2,2-dimethylpropanoyl)amino]methyl}-N-[1-(6-methylpyridazin-3-yl)-1H-indazol-4-yl]benzamide], the “Suppression (%) of urinary output” value in assay [1] is recorded as 21.2%. On human mPGES-1, the IC50 (as a rule, the concentration needed to halve the response being measured) was found to be 34.2 nM. The pIC50 (in general, −log10 of the IC50, conventionally taken in molar units) in the assay on human A549 cells is 7.61.
On the same counts, the results for `CC(C)(C)C(=O)NCc1ccc(Cl)c(C(=O)Nc2cccc3c2cnn3-c2ccc(C3CC3)nc2)c1.Cl` [Example 69, 2-Chloro-N-[1-(6-cyclopropylpyridin-3-yl)-1H-indazol-4-yl]-5-{[(2,2-dimethylpropanoyl)amino]methyl}benzamide hydrochloride] are 57.8%, 3.8 nM and 8.68.
On the same counts, the results for `CC(C)(C)C(=O)NCc1ccc(Cl)c(C(=O)Nc2cccc3c2cnn3-c2ccnc(C3CC3)c2)c1.Cl` [Example 70, 2-Chloro-N-[1-(2-cyclopropylpyridin-4-yl)-1H-indazol-4-yl]-5-{[(2,2-dimethylpropanoyl)amino]methyl}benzamide hydrochloride] are 25.1%, 4.3 nM and 9.00.
On the same counts, the results for `Cc1ccc(-n2ncc3c(NC(=O)c4cc(CNC(=O)C(C)(C)C)ccc4C(F)(F)F)cccc32)cn1.Cl` [Example 88, 5-{[(2,2-Dimethylpropanoyl)amino]methyl}-N-[1-(6-methylpyridin-3-yl)-1H-indazol-4-yl]-2-(trifluoromethyl)benzamide hydrochloride] are 34.5%, 1.5 nM and 7.17.
As for `CC(C)(CO)C(=O)NCc1ccc(Cl)c(C(=O)Nc2cccc3c2cnn3-c2cccc(OC(F)(F)F)c2)c1` [Example 125, 2-Chloro-5-{[(3-hydroxy-2,2-dimethylpropanoyl)amino]methyl}-N-{1-[3-(trifluoromethoxy)phenyl]-1H-indazol-4-yl}benzamide], the “Suppression (%) of urinary output” value in assay [1] is listed as 58.0%. Also, the inhibition – broadly, the percentage by which the read-out fell short of the control – at 0.01 µM against human mPGES-1 was found to be 62%. In addition, in the assay on human A549 cells, the pIC50 was 8.46.
Consider `COc1ccc(-n2ncc3c(NC(=O)c4cc(CNC(=O)C(C)(C)C)ccc4C(F)(F)F)cccc32)cn1` [Example 276, 5-{[(2,2-Dimethylpropanoyl)amino]methyl}-N-[1-(6-methoxypyridin-3-yl)-1H-indazol-4-yl]-2-(trifluoromethyl)benzamide], for which the “Suppression (%) of urinary output” value in assay [1] amounted to 35.1%. Further, on human mPGES-1, testing at 0.01 µM gave an inhibition of 68%. This compound registered an inhibition at 0.1 µM against human mPGES-1 (100 nM test compound) of 94%. In addition, the pIC50 in the assay on human A549 cells is 8.52.
